Laboratory results from doi:10.1101/2020.06.11.145995v1 (biorxiv, 2020).
Where two headings read alike, the source gives them in different places. One block for each compound: values may come before it.

Columns and labels:
Test in all cases: biochemical
[1] = target: ADCK4 (Homo sapiens, UniProt Q96D53)
[2] = target: AKT3 (Homo sapiens, UniProt Q9Y243)
[3] = target: AMPK-alpha1 (Homo sapiens, UniProt Q13131)
[4] = target: BRAF(V600E) (Homo sapiens, UniProt P15056, V600E)
[5] = target: CAMK1D (Homo sapiens, UniProt Q8IU85)
Sequence of CAMK1D (Q8IU85 whole entry): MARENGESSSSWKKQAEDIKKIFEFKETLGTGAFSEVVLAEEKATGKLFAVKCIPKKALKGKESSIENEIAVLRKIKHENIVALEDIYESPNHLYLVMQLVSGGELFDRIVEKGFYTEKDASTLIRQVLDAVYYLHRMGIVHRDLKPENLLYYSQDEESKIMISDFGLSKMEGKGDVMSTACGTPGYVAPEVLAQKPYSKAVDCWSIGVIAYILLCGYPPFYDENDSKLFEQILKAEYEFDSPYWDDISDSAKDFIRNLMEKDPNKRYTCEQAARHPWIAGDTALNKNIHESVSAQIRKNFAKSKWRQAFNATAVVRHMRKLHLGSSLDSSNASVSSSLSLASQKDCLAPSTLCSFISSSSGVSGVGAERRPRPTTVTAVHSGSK

[6] = target: CDK8 (Homo sapiens, UniProt P49336)
[7] = target: CDKL1 (Homo sapiens, UniProt Q00532)
Sequence of CDKL1 (Q00532 whole entry): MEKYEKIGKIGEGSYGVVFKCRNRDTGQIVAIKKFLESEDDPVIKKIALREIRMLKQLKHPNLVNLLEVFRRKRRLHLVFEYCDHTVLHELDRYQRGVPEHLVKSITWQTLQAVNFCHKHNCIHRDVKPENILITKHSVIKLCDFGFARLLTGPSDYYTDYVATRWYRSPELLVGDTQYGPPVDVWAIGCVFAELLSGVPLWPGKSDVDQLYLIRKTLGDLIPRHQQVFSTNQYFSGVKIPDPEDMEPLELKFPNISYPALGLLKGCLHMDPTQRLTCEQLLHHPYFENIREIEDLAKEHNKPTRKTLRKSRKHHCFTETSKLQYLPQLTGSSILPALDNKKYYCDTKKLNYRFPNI

[8] = target: CDKL5 (Homo sapiens, UniProt O76039)
[9] = target: CHEK2 (Homo sapiens, UniProt O96017)
Sequence of CHEK2 (O96017 whole entry): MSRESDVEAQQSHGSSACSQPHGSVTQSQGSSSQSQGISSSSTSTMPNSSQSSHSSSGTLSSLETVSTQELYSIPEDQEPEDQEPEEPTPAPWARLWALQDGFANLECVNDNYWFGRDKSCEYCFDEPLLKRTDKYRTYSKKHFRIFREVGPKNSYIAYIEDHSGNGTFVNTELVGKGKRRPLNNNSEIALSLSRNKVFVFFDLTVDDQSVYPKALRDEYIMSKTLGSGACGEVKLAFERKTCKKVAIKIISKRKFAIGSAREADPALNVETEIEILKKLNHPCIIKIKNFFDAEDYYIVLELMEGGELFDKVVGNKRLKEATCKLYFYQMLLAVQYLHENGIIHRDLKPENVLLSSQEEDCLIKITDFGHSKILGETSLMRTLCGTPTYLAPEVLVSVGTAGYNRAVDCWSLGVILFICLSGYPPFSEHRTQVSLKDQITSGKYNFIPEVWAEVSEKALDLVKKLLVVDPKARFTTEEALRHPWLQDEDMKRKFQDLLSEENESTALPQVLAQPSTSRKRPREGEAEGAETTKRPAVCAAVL

[10] = target: CSNK1G1 (Homo sapiens, UniProt Q9HCP0)
Sequence of CSNK1G1 (Q9HCP0 whole entry): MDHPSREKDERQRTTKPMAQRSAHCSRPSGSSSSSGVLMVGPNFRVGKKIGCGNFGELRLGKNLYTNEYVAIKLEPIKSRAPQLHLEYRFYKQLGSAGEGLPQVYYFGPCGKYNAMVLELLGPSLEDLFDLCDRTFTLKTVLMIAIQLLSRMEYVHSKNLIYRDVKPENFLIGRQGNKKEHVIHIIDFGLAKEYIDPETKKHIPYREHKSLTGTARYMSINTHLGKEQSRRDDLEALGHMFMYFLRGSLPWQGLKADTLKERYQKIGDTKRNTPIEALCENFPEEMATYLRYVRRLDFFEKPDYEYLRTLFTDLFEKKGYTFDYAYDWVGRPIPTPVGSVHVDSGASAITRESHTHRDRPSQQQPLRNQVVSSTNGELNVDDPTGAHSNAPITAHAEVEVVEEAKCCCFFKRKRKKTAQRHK

[11] = target: DYRK2 (Homo sapiens, UniProt Q92630)
[12] = target: FAK (Homo sapiens, UniProt Q05397)
[13] = target: FLT3(ITD) (Homo sapiens, UniProt P36888, ITD)
Sequence of FLT3(ITD) (P36888 564-993, change not shown): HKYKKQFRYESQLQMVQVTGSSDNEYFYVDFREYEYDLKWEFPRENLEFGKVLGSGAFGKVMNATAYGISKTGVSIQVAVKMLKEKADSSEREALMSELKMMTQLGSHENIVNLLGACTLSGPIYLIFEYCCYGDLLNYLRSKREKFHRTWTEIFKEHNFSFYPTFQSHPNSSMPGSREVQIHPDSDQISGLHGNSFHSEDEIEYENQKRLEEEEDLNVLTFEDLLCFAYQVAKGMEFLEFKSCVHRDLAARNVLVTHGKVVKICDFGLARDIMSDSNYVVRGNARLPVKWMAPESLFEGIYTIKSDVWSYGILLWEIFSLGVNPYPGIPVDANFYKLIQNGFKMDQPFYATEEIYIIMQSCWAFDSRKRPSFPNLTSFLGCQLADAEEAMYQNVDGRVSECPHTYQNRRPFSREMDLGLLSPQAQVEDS

[14] = target: GRK7 (Homo sapiens, UniProt Q8WTQ7)
[15] = target: GSK3A (Homo sapiens, UniProt P49840)
[16] = target: HUNK (Homo sapiens, UniProt P57058)
[17] = target: INSRR (Homo sapiens, UniProt P14616)
[18] = target: JNK3 (Homo sapiens, UniProt P53779)
[19] = target: KIT(A829P) (Homo sapiens, UniProt P10721, A829P)
[20] = target: LATS2 (Homo sapiens, UniProt Q9NRM7)
[21] = target: LRRK2(G2019S) (Homo sapiens, UniProt Q5S007, G2019S)
[22] = target: MAP3K1 (Homo sapiens, UniProt Q13233)
[23] = target: MAP3K15 (Homo sapiens, UniProt Q6ZN16)
[24] = target: MAP3K2 (Homo sapiens, UniProt Q9Y2U5)
[25] = target: MAPKAPK5 (Homo sapiens, UniProt Q8IW41)
Sequence of MAPKAPK5 (Q8IW41 whole entry): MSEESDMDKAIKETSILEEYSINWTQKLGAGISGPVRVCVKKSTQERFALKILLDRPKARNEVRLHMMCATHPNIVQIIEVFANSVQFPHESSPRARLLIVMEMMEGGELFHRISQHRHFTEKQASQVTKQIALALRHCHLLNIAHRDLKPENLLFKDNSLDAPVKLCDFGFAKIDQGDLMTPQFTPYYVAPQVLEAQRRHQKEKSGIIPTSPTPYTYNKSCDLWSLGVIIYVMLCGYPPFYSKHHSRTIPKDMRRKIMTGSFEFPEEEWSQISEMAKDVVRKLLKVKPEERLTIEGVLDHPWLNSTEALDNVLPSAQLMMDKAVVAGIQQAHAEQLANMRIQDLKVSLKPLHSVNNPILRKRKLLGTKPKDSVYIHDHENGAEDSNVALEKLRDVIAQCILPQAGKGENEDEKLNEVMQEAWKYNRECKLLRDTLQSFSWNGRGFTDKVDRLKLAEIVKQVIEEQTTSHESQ

[26] = target: MARK3 (Homo sapiens, UniProt P27448)
[27] = target: MET (Homo sapiens, UniProt P08581)
[28] = target: MST1 (Homo sapiens, UniProt Q13043)
Sequence of MST1 (Q13043 whole entry): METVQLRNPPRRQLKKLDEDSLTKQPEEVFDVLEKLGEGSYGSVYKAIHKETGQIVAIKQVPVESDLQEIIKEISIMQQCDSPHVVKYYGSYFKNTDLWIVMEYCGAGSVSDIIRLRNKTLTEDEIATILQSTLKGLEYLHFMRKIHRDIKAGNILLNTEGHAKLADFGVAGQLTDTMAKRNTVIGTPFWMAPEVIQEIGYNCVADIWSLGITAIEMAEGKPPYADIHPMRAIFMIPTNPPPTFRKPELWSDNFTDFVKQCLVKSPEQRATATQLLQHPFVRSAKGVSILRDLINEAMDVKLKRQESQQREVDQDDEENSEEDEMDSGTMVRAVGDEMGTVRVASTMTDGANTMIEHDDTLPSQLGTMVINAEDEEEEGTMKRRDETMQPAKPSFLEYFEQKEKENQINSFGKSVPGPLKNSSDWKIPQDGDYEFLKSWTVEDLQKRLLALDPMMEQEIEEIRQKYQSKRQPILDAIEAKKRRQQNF

[29] = target: MST1R (Homo sapiens, UniProt Q04912)
Sequence of MST1R (Q04912 whole entry): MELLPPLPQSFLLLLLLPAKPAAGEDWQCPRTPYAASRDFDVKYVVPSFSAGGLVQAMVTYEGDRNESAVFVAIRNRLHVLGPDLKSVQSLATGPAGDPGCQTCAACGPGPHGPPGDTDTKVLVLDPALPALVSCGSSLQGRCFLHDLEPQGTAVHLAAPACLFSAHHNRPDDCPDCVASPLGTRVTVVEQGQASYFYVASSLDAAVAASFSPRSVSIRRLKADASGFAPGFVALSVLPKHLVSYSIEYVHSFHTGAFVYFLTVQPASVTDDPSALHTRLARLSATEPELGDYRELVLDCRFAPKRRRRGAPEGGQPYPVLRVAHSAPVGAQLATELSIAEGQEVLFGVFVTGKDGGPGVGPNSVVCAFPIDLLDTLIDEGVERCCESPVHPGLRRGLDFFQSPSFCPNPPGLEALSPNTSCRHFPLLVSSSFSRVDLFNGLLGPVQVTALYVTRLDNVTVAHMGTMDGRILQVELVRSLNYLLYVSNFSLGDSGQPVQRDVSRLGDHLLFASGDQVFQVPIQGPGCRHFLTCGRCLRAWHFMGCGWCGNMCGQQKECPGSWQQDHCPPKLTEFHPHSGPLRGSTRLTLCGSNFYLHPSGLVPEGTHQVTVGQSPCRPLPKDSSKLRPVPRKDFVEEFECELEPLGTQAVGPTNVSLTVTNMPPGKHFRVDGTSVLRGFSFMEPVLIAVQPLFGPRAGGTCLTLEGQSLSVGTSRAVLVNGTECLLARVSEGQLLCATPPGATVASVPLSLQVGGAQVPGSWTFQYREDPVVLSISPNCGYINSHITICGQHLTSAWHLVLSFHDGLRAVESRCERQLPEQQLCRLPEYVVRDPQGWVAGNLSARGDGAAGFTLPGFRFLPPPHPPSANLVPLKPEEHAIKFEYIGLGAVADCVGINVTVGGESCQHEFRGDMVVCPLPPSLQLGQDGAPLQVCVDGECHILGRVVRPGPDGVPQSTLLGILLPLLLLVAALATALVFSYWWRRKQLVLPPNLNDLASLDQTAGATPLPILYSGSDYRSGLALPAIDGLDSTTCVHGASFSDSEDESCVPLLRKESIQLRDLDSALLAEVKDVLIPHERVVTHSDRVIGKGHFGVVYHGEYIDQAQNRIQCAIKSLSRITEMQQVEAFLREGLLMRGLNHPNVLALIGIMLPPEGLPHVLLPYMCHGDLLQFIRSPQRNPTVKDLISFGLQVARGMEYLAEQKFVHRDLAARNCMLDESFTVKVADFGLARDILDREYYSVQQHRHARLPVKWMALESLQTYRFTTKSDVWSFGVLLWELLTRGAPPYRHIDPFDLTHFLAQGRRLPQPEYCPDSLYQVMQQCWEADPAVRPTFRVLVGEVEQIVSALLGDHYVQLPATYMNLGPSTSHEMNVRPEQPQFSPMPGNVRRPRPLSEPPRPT

[30] = read-out: CPT-1-70-1 (1uM) % control
[31] = read-out: HYJ-2-002-1 (1uM) % control

Sequence of AKT3 (Q9Y243 whole entry): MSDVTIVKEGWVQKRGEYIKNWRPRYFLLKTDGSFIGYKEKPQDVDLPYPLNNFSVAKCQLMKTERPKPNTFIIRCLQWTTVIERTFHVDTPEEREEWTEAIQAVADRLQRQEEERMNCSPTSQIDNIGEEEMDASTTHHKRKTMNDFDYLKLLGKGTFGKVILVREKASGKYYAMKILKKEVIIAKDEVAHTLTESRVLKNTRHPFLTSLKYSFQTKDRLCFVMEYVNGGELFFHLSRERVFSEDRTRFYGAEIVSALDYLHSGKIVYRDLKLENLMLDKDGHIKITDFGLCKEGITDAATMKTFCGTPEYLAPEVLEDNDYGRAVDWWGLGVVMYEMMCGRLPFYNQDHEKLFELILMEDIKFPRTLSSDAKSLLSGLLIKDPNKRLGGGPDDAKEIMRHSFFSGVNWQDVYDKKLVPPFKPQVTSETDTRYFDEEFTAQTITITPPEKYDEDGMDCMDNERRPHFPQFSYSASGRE

Structure (SMILES): CN1CCN(c2ccc(Nc3nc(Oc4ccc(NC(=O)CCl)cc4)c4cc[nH]c4n3)cc2)CC1 [CPT1-70-1]
remaining activity at 1 µM [1, 30]: 91%
remaining activity at 1 µM [2, 30]: 100%
remaining activity at 1 µM [3, 30]: 32%
remaining activity at 1 µM [4, 30]: 100%
remaining activity at 1 µM [5, 30]: 56%
remaining activity at 1 µM [6, 30]: 100%
remaining activity at 1 µM [7, 30]: 66%
remaining activity at 1 µM [8, 30]: 100%
remaining activity at 1 µM [9, 30]: 38%
remaining activity at 1 µM [10, 30]: 18%
remaining activity at 1 µM [11, 30]: 100%
remaining activity at 1 µM [12, 30]: 85%
remaining activity at 1 µM [13, 30]: 1.6%
remaining activity at 1 µM [14, 30]: 100%
remaining activity at 1 µM [15, 30]: 100%
remaining activity at 1 µM [16, 30]: 78%
remaining activity at 1 µM [17, 30]: 33%
remaining activity at 1 µM [18, 30]: 4.6%
remaining activity at 1 µM [19, 30]: 75%
remaining activity at 1 µM [20, 30]: 40%
remaining activity at 1 µM [21, 30]: 2.6%
remaining activity at 1 µM [22, 30]: 100%
remaining activity at 1 µM [23, 30]: 100%
remaining activity at 1 µM [24, 30]: 37%
remaining activity at 1 µM [25, 30]: 98%
remaining activity at 1 µM [26, 30]: 9.2%
remaining activity at 1 µM [27, 30]: 28%
remaining activity at 1 µM [28, 30]: 100%
remaining activity at 1 µM [29, 30]: 100%

remaining activity at 1 µM [1, 31]: 100%
remaining activity at 1 µM [2, 31]: 100%
remaining activity at 1 µM [3, 31]: 87%
remaining activity at 1 µM [4, 31]: 1.2%
remaining activity at 1 µM [5, 31]: 94%
remaining activity at 1 µM [6, 31]: 9.2%
remaining activity at 1 µM [7, 31]: 94%
remaining activity at 1 µM [8, 31]: 100%
remaining activity at 1 µM [9, 31]: 63%
remaining activity at 1 µM [10, 31]: 93%
remaining activity at 1 µM [11, 31]: 96%
remaining activity at 1 µM [12, 31]: 91%
remaining activity at 1 µM [13, 31]: 2.3%
remaining activity at 1 µM [14, 31]: 100%
remaining activity at 1 µM [15, 31]: 78%
remaining activity at 1 µM [16, 31]: 79%
remaining activity at 1 µM [17, 31]: 100%
remaining activity at 1 µM [18, 31]: 75%
remaining activity at 1 µM [19, 31]: 61%
remaining activity at 1 µM [20, 31]: 98%
remaining activity at 1 µM [21, 31]: 83%
remaining activity at 1 µM [22, 31]: 83%
remaining activity at 1 µM [23, 31]: 100%
remaining activity at 1 µM [24, 31]: 26%
remaining activity at 1 µM [25, 31]: 100%
remaining activity at 1 µM [26, 31]: 100%
remaining activity at 1 µM [27, 31]: 59%
remaining activity at 1 µM [28, 31]: 89%
remaining activity at 1 µM [29, 31]: 100%
Structure (SMILES): CCN1CCN(Cc2ccc(NC(=O)c3ccc(C)c(CCc4cnc5[nH]ccc5c4OC)c3)cc2C(F)(F)F)CC1 [HYJ-2-002-1]
